Reference: paper PMC11889359, “Site-Specific Competitive Kinase Inhibitor Target Profiling Using Phosphonate Affinity Tags” (Molecular & Cellular Proteomics : MCP, 2025)
Several values for one entry are separate records, joined by “and”; a condition that tells them apart may be missing. Equal entries are not always repeated.

Assays:
[1] = target: T1, cyclin G–associated kinase (GAK) (Homo sapiens, UniProt O14976); assay: Competitive site-specific PhosID-ABPP with XO44 in intact A549 cells; format: binding; details: apparent IC50, lysine 175 in ATP pocket, n = 3, read-out: IC50 GAK;K175
T1 construct: endogenous in cells; host or cells: cultured cells treated intact (A549 per the earlier reading)
T1 sequence (O14976 1-1311): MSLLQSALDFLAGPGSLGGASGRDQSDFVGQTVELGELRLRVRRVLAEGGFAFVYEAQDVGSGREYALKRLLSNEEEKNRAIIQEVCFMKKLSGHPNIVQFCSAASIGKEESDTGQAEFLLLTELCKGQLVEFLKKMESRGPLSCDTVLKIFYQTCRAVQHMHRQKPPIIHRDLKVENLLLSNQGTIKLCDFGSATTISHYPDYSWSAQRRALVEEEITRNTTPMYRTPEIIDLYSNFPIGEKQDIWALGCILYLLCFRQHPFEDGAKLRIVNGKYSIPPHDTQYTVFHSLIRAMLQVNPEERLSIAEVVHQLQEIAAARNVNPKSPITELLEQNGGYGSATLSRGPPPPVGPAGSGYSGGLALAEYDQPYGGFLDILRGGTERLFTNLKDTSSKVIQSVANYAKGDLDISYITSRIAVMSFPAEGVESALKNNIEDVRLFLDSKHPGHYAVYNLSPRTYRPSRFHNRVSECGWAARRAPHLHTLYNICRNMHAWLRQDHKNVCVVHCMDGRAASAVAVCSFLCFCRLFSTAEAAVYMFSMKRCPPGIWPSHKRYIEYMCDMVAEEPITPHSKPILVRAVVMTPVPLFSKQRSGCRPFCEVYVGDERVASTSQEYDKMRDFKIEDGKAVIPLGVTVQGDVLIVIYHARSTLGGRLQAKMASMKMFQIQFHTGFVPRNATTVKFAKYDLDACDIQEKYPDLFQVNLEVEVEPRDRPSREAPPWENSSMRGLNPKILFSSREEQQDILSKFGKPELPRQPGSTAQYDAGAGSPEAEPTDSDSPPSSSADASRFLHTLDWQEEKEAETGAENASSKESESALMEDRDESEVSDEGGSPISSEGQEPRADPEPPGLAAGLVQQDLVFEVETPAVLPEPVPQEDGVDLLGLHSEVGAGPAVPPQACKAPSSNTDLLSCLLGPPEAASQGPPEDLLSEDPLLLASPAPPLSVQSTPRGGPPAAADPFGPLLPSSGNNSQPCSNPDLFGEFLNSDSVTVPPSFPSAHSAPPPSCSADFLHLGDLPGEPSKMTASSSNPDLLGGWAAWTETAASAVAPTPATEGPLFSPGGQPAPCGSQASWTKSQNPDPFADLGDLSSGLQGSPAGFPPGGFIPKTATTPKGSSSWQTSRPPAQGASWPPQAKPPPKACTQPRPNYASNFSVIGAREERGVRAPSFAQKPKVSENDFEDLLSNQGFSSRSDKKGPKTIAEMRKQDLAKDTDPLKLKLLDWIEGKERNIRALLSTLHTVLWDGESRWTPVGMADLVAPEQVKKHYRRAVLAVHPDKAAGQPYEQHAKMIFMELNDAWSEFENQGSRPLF
Method: (§1) 1e^6 cells were plated in 15 cm plates (Greiner) 3 days before treatment and kept in a humidified atmosphere with 5% CO2 at 37 °C. The growth medium was replaced by 10 ml treatment [DMEM with 0.5% FBS and 100 units/ml PS supplemented with the corresponding concentration of NVP-BHG712 (Sigma-Aldrich) or DMSO] and incubated at 37 °C, 5% CO2 for 3 h. Then, 10 μl 25 mM XO44 (PF-6808472, Sigma-Aldrich) was added directly to the medium and swirled to enable dissolution. Subsequently, the cells were incubated at 37 °C, 5% CO2 for 4 h. The samples for Supplemental Fig. S1 were generated by directly incubating with 25 μM XO44-containing growth medium for 4 h.
(§2) After treatment, the cells were washed with ice-cold DPBS and harvested using a cell scraper in 1 ml ice-cold DPBS. Then, the cell suspension was spun down at 2000g for 1 min, and the supernatant was aspirated. The cell pellet was snap-frozen in liquid nitrogen and stored at −80 °C for later use.
(§3) Cell pellets were lysed in 500 μl lysis buffer per 15 cm plate of cells, consisting of 50 mM Hepes (Sigma-Aldrich, pH 7.5), 0.5% NP-40 (Applichem), 0.2% SDS (Gen-Apex), 2 mM MgCl2 (Sigma-Aldrich), 10 mM NaCl (Merck), 1× protease inhibitor cocktail (Roche), and 0.5 μl/ml Benzonase (Millipore). Cell lysates were incubated at room temperature for 15 min to allow DNA cleavage. Cell debris and DNA were spun down for 30 min at 20,567g at 16 °C. The supernatant was collected, and the protein concentration was determined by a bicinchoninic acid assay (Thermo Fisher Scientific).
(§4) The copper(I)-catalyzed azide-alkyne cycloaddition (CuAAC) was performed on cellular lysates in 2 M urea (Merck) in 1× 50 mM Hepes (pH 7.5). CuAAC components were added in the following order: 5 mM tris(3-hydroxypropyltriazolylmethyl)amine (Lumiprobe), 2.5 mM CuSO4 5·H2O (Sigma-Aldrich), 500 μM phosphonate-azide (prepared as described in van Bergen et al., 2023 ([28])), and 25 mM sodium ascorbate (Sigma-Aldrich). Samples were incubated for 2 h at room temperature while rotating. Methanol–chloroform precipitation was performed to remove the CuAAC components, and the air-dried pellets were resuspended in 8 M urea and sonicated in a bioruptor (Diagenode) with the high amplitude setting for 10 min with cycles of 30 s on and 30 s off.
(§5) Clicked and dissolved protein samples were diluted to 4M urea with 50 mM ammonium bicarbonate (pH 8, AmBic, Sigma-Aldrich). The proteins were reduced with 4 mM DTT (Sigma-Aldrich) for 60 minutes at room temperature and alkylated in the dark using 8 mM iodoacetamide (Sigma-Aldrich) for 30 min. Residual iodoacetamide was quenched by adding DTT to a final concentration of 4 mM.
(§6) Next, samples were diluted 2× with 50 mM AmBic and digested with LysC (1:75 enzyme to protein ratio, Wako) for 4 h at 37 °C. Finally, proteins were digested overnight using Trypsin (1:50, enzyme to protein ratio, Sigma-Aldrich) at 37 °C. Proteolysis with chymotrypsin was performed similarly to the trypsin digestion, only replacing both proteolytic enzymes with α-chymotrypsin (bovine, 1:75, enzyme to protein ratio, Sigma-Aldrich) overnight at 37 °C. Digested material was desalted using 3 cc C18 Seppak cartridges (Waters) and air dried using a vacuum centrifuge.
(§7) For the digestion with pepsin, protease incubation (Porcine, 1:50, enzyme to protein ratio, Sigma-Aldrich) was performed for 4 h at 37 °C in 40 mM HCl (pH 2). Digested material was directly desalted using 3 cc C18 Seppak cartridges and air dried using a vacuum centrifuge.
(§8) Samples were dephosphorylated prior to immobilized metal affinity chromatography (IMAC) enrichment. Desalted peptides were dissolved in 1× rCutSmart buffer (pH 8, New England BioLabs) and incubated with 50 units of alkaline phosphatase (calf intestinal, QuickCIP, New England BioLabs) overnight at 37 °C while shaking. After dephosphorylation, all peptides were again desalted using 3 cc C18 Seppak cartridges and air-dried using a vacuum centrifuge. […]

[2] = target: T2, inosine-5′-monophosphate dehydrogenase 2 (IMPDH2) (Homo sapiens, UniProt P12268); assay: as above; format: binding; details: apparent IC50, competition with XO44 on lysine 450, n = 3, read-out: IC50 IMPDH2;K450
T2 construct: endogenous in cells; host or cells: cultured cells treated intact (A549 per the earlier reading)
T2 sequence (P12268 2-514 limits assumed): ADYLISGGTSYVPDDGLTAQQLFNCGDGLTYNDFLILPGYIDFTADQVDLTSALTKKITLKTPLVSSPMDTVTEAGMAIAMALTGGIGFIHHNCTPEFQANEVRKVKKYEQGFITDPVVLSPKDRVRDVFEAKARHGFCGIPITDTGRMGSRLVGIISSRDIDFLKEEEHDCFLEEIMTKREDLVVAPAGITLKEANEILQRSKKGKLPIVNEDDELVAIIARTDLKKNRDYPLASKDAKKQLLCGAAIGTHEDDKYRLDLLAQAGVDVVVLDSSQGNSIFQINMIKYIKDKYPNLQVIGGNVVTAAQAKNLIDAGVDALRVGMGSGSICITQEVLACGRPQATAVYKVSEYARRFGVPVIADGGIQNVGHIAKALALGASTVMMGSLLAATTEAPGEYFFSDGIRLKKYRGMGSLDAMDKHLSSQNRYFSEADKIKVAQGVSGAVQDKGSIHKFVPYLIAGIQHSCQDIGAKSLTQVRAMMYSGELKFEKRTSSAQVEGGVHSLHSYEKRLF
Method: as §1, §2, §3, §4, §5, §6, §7, §8

JAK2 = target: T3, JAK2 (Homo sapiens, UniProt O60674); assay: as above; format: binding; details: 0.1 nM to 25 µM inhibitor, trypsin and pepsin
T3 construct: endogenous in cells; host or cells: cultured cells treated intact (A549 per the earlier reading)
T3 sequence (O60674 whole entry): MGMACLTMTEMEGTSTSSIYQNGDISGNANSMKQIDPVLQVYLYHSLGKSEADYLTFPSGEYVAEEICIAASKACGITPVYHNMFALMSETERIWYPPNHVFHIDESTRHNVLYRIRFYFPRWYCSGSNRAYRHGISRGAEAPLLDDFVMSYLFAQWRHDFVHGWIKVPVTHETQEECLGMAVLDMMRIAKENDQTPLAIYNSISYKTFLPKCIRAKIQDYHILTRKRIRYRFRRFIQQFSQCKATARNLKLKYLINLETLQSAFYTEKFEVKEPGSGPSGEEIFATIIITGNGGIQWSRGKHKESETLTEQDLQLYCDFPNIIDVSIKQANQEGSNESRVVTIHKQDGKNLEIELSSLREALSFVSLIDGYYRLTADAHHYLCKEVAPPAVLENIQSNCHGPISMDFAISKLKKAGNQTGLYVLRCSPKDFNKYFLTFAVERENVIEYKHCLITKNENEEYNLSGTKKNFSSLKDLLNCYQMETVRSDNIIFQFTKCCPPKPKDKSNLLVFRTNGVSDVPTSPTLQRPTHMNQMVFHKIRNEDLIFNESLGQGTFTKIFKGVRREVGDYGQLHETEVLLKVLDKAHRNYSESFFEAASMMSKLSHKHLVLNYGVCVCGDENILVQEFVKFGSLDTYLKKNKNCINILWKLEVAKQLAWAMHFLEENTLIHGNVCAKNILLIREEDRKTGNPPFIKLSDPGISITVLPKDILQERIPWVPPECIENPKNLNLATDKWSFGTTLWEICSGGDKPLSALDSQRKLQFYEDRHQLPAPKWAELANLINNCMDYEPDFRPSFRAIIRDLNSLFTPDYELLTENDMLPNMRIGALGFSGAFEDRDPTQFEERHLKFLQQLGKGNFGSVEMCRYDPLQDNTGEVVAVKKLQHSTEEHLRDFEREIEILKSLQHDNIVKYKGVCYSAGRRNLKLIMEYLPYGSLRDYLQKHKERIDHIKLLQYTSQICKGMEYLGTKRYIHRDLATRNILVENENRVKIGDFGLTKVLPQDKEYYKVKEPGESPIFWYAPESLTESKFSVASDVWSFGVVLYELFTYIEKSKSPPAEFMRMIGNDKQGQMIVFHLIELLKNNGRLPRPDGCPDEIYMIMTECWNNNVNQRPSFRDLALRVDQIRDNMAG
Method: as §1, §2, §3, §4, §5, §6, §7, §8

MAP3K20 = target: T4, MAP3K20 (Homo sapiens, UniProt Q9NYL2); assay: as above; format: binding; details: apparent IC50, unique peptide, n = 3, read-out: IC50 MAP3K20;K45
T4 construct: endogenous in cells; host or cells: cultured cells treated intact (A549 per the earlier reading)
Method: as §1, §2, §3, §4, §5, §6, §7, §8

EphB4 = target: T5, EphB4 (Homo sapiens, UniProt P54760); assay: as above; format: binding; details: apparent IC50, 3 h inhibitor then 25 μM XO44 4 h, n = 3, read-out: IC50 EphB4;K647
T5 construct: endogenous in cells; host or cells: cultured cells treated intact (A549 per the earlier reading)
T5 sequence (P54760 16-987): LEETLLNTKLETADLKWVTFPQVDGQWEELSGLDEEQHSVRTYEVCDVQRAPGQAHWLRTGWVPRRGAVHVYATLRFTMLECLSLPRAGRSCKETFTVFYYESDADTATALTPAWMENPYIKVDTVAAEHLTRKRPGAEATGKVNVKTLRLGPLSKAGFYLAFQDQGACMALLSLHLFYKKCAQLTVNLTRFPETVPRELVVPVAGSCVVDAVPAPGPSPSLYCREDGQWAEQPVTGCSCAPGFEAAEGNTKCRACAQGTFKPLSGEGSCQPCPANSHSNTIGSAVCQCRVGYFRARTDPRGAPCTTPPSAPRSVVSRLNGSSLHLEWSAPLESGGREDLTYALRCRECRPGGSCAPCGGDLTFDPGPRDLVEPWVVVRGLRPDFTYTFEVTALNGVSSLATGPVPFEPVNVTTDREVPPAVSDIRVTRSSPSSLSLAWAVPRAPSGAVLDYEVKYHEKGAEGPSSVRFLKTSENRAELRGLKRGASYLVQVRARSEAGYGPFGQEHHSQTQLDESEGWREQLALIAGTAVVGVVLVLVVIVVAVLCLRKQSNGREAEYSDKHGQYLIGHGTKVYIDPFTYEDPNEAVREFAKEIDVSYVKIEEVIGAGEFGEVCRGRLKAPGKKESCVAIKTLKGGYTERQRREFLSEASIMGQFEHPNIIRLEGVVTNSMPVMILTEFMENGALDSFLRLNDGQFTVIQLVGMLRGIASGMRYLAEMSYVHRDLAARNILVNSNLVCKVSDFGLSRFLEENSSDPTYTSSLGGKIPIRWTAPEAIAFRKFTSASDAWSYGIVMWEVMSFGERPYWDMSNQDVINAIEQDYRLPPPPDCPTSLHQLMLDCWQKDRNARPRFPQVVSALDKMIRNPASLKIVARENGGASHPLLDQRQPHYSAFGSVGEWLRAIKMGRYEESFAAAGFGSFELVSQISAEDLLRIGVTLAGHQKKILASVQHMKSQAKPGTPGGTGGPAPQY
Method: as §1, §2, §3, §4, §5, §6, §7, §8

[3] = target: T6, epithelial discoidin domain-containing receptor 1 (DDR1) (Homo sapiens, UniProt Q08345); assay: as above; format: binding; details: apparent IC50, pepsin-based analysis, n = 3, read-out: IC50 DDR1;K655
T6 construct: endogenous in cells; host or cells: cultured cells treated intact (A549 per the earlier reading)
T6 sequence (Q08345 19-913): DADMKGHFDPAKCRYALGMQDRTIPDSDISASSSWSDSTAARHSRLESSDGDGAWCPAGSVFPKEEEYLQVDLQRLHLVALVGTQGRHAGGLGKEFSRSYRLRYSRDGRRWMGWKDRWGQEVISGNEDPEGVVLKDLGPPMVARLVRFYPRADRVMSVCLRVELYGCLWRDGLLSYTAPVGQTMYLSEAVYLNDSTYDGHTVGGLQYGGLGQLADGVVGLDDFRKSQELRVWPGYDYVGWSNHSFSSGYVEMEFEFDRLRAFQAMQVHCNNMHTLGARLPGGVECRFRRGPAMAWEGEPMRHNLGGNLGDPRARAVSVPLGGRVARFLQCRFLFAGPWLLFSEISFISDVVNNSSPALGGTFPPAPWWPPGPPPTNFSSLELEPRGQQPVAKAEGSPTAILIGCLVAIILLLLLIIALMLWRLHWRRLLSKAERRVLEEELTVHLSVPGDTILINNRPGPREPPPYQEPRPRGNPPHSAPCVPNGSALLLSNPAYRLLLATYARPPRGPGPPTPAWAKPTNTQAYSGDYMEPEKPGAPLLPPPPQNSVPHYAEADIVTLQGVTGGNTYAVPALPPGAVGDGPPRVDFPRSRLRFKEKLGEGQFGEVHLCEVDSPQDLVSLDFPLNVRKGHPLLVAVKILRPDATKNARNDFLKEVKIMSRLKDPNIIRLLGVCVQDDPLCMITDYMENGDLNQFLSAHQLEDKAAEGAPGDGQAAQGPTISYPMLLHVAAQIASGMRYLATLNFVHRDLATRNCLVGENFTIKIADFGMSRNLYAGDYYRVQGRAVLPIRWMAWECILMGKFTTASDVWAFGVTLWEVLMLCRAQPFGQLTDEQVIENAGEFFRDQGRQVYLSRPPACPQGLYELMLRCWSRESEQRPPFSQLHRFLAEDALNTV
Method: as §1, §2, §3, §4, §5, §6, §7, §8

[4] = target: T7, neurotrophic receptor tyrosine kinase 3 (NTRK3) (Homo sapiens, UniProt Q16288); assay: as above; format: binding; details: 0.1 nM to 25 µM inhibitor, pepsin
T7 construct: endogenous in cells; host or cells: cultured cells treated intact (A549 per the earlier reading)
T7 sequence (Q16288 32-839): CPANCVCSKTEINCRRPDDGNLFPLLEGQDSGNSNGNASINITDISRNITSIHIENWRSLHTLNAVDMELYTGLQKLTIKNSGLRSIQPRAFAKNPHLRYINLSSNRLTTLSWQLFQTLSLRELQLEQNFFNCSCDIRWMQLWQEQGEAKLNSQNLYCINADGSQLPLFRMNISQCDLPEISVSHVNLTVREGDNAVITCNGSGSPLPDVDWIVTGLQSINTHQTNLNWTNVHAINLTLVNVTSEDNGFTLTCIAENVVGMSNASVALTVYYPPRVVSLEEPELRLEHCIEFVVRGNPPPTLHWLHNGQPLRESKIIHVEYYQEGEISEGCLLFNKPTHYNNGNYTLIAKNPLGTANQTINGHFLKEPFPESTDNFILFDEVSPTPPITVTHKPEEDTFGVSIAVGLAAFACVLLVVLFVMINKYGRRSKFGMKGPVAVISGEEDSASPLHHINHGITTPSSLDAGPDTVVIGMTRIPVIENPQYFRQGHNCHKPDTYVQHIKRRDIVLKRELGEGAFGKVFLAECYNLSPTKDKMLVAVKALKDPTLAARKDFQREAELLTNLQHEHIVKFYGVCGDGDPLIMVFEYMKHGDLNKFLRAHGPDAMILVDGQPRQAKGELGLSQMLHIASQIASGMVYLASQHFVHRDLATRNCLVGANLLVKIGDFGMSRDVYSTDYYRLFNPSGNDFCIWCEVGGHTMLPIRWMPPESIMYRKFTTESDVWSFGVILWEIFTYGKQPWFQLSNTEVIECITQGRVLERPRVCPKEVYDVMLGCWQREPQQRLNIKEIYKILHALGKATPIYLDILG
Method: as §1, §2, §3, §4, §5, §6, §7, §8

DDR1 = test system: DDR1; parameters: method as in PMID 36799129; details: cited from earlier work
EphA2 = target: EphA2; parameters: method as in PMID 29928781; details: read-out: Literature value for EphA2, microscale thermo-phoresis; cited from earlier work
[5] = test system: apoptosis signal-regulating kinases 1-3 (MAP3K5/6/15); assay: Competitive site-specific PhosID-ABPP with XO44 in intact A549 cells; format: binding, human; details: apparent IC50, nonunique peptide, n = 3, read-out: IC50 MAP3K5/6/15 (nonunique peptide: MAP3K5;K709, MAP3K6;K677, MAP3K15;K681)
Method: as §1, §2
as §3, with “Cell lysates were incubated at room temperature for 15 min to allow DNA cleavage. Cell debris and DNA were spun down for 30 min at 20,567g at 16 °C.” left out, “Scientific). […]” for “Scientific).”

Question: Which IC50 [1] does the source give for NVP-BHG712 here?
Answer: 13000 nM

Question: And the IC50 [2]?
Answer: 9600 nM

Question: What about the “Interaction with ATP-binding pocket, JAK2;K882 signal across the concentration range” value (JAK2) of the same substance?
Answer: do not interact

Question: And the IC50 (MAP3K20)?
Answer: 2900 nM

Question: What about the IC50 (EphB4) of the same substance?
Answer: 20 nM and 20.2 nM

Question: And the IC50 [3]?
Answer: 2.1 nM

Question: What about the “MaxLFQ signal of XO44-bound NTRK3;K572 over the concentration range” value [4] of the same substance?
Answer: stable MaxLFQ signal over the full concentration range

Question: And the “Binding to DDR1 in kinobeads profiling” value (DDR1)?
Answer: does not bind

Question: And the Kd (EphA2)?
Answer: 13 nM

Question: And the IC50 [5]?
Answer: 9700 nM
